What was measured:
cholesterol biosynthesis = assay: Cell experiment on inhibition of cholesterol biosynthesis; format: cell-based; conditions: cells treated with the same concentration, 100 ppb
Source text: In order to compare the inhibitory effect of cholesterol biosynthesis by monascin, ankaflavin and monacolin K, the present invention applies a cell experiment and treats cells with monascin, ankaflavin and monacolin K with the same concentration (100 ppb) for researching the influence of these ingredients on the cholesterol biosynthesis.

[1] = test system: hamsters feed with high cholesterol diet; assay: Cholesterol parameters in blood of hamsters fed high cholesterol diet; format: in vivo; conditions: ratio of LDL-C to HDL-C, hamsters on high cholesterol diet, 8 weeks
Method: Additionally, a composition containing monacolin K is utilized as a comparison group, which is called as MK for abbreviation.
Firstly, the experiment utilizes hamsters feed with high cholesterol diet as experimental animals, which are then feed with MS, AF, MS+AF, and MK for 8 weeks, and then each of cholesterol parameters in blood of the hamsters are analyzed. The cholesterol parameters include total cholesterol (TC), triglyceride (TG), high density lipoprotein cholesterol (HDL-C), low density lipoprotein cholesterol (LDL-C), ratio of LDL-C to HDL-C, and malondialdehyde (MDA). […] Additionally, a normal diet group is referred to as NOR, and a high cholesterol diet group is referred to as HC.

[2] = test system: lipid plaque on arterial vascular walls in the thoracic cavity; assay: Lipid plaque staining in arteries of high cholesterol diet animals; format: in vivo, hamsters; conditions: high cholesterol diet for eight weeks, human-equivalent per day: MK 2.89 mg, MS 9.82 mg, AF 1.43 mg
Method: Firstly, the experiment utilizes hamsters feed with high cholesterol diet as experimental animals, which are then feed with MS, AF, MS+AF, and MK for 8 weeks, and then each of cholesterol parameters in blood of the hamsters are analyzed. The cholesterol parameters include total cholesterol (TC), triglyceride (TG), high density lipoprotein cholesterol (HDL-C), low density lipoprotein cholesterol (LDL-C), ratio of LDL-C to HDL-C, and malondialdehyde (MDA). The amount of the MK taken by the experimental animals is equivalent to 2.89 mg taken by an adult human per day. Additionally, a normal diet group is referred to as NOR, and a high cholesterol diet group is referred to as HC.
Another important indicator for evaluating atherosclerosis is the analysis of lipid plaque staining in arteries, and the results of lipid plaque staining can indicate that whether lipid plaque deposits on arterial vascular walls. Large amounts of lipid with over-oxidation can cause bulk deposition of foam cells, and then the vascular walls lose elasticity and large amounts of lipid plaque are deposited, so as to lead to atherosclerosis. Referring to FIG. 11, which is a diagram of quantitative results of the lipid plaque staining experiment.

CC[C@H](C)C(=O)O[C@H]1C[C@@H](C)C=C2C=C[C@H](C)[C@H](CC[C@@H]3C[C@@H](O)CC(=O)O3)[C@H]21 [MK, monacolin K]
inhibition of cholesterol biosynthesis (FIG. 12) (cholesterol biosynthesis): weakest effect | LDL/HDL [1]: 0.489 | amount of lipid plaque on arterial vascular walls (lipid plaque staining, FIG. 11) [2]: can lower the amount of lipid plaque
